Experimental data published in patent US12570666B2, “Furoindazole derivatives” (Bayer Aktiengesellschaft, priority 2019, dated 2026).

Target: T1, human GPR84 receptor (Homo sapiens, UniProt Q9NQS5)
T1 construct: frozen aliquots prepared by acCELLerate; host or cells: CHO-K1
Assay: cAMP HTRF assay for identification of cellular GPR84 antagonists
Assay type: cell-based
Conditions: CHO-K1 cells stably expressing human GPR84; Forskolin + agonist 6-OAU (EC80); average or median values
Text: cAMP HTRF® Assay for Identification of Cellular GPR84 Antagonists
By using a Homogenous Time-Resolved Fluorescence (HTRF®) based assay (#62AM5PEJ, Cisbio, Condolet, France) the inhibition of the Gi-coupled GPR84 receptor can be detected. CHO-K1 cells stably expressing human GPR84 receptor (purchased from DiscoveRx, now Eurofins) were used and treated with Forskolin (F6886, Sigma, Germany) to stimulate membrane adenylyl cyclases and thereby unspecific cAMP formation. Activation of the Gi-coupled GPR84 by a natural or small molecule agonist (e.g. 6-n-octyl aminouracile, inhouse) results in inhibition of cellular cAMP formation which can be released again by antagonists to this receptor. Detection and quantification of cellular cAMP levels in this HTRF assay is achieved by interaction between a fluorescent cAMP tracer (cAMP-d2) and an Eu-cryptate labelled anti-cAMP antibody. Following excitation at 337 nm this pairing allows for the generation of a fluorescence resonance energy transfer (FRET) between the partners and results in FRET induced emissions at 665 nm and 620 nm, the latter representing background signal by Eu-cryptate labelled anti-cAMP antibody. Maximal signal is obtained in the absence of any cellular cAMP (no competition for the binding of the tracer to the antibody). Given the combination of the Gi coupling properties of GPR84 and the competitive nature of the detection system agonist treatment should result in an increase in the HTRF signal due to lowered cAMP levels. Any signal decrease in the presence of Forskolin, agonist and compound is indicative of antagonist mediated abrogation of GPR84 signalling.
For the assay, frozen aliquots of CHO-K1 cells expressing hGPR84 (prepared by acCELLerate, Hamburg, Germany) were thawed and a cell suspension (1.67E+06 cells/mL) in assay media (Ham's F12 Nutrient Mix, Thermo Fisher Scientific, Waltham, USA; 5% fetal calf serum, Biomol, Hamburg, Germany) containing cAMP-d2 (dilution 1:20, supplied with the kit #62AM5PEJ, Cisbio, Condolet, France) was prepared. After recovery of cells for 20 minutes at 37° C., 3 μL/well cell suspension including cAMP-d2 were added to a pre-dispensed assay plate (Greiner Bio-One, Kremsmuenster, Austria) containing 50 nl/well test compound in 100% DMSO or 100% DMSO as control. This was followed by a 30 minutes incubation step at room temperature. […] The reaction was stopped by addition of 3 μL/well lysis buffer containing cAMP Eu-Cryptate antibody (dilution 1:20) (both supplied with the kit #62AM5PEJ, Cisbio, Condolet, France). To enable complete lysis, plates were incubated for 60 minutes at room temperature before measurement in an HTRF reader, e.g. a PHERAstar (BMG Labtech, Ortenberg, Germany).
From the fluorescence emissions at 665 nm (FRET) and at 620 nm (background signal of Eu-cryptate) the ratio (emission at 665 nm divided by emission at 620 nm×10000) was calculated and the data were normalized (reaction without test compound, only 100% DMSO=0% inhibition; all other assay components except agonist=100% inhibition). For dose response testing on the same microtiter plate, compounds were tested at 11 different concentrations in the range of 20 μM to 0.07 nM (20 μM, 5.7 μM, 1.6 μM, 0.47 μM, 0.13 μM, 38 nM, 11 nM, 3.1 nM, 0.89 nM, 0.25 and 0.07 nM; dilution series prepared before the assay at the level of the 100-fold conc. stock solutions by serial 1:3.5 dilutions in 100% DMSO) in duplicate values for each concentration. IC50 values were calculated by 4-parameter fitting using a commercial software package (Genedata Screener, Basel, Switzerland).
Examples were tested in selected biological assays one or more times. […]

T1 sequence (Q9NQS5 whole entry): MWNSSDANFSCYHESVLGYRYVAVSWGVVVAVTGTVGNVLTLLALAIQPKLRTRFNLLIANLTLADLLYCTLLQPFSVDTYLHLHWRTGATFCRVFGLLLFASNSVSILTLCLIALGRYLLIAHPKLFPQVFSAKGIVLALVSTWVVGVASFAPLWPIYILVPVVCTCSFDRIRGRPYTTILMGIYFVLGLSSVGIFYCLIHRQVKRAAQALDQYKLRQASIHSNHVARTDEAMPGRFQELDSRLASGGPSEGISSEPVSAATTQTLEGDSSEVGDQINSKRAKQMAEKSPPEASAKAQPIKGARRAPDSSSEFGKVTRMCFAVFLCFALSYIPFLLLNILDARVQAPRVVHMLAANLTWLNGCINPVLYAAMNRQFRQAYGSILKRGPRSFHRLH

| IC50 [nM] | Compound |
| --- | --- |
| 801 | Cc1c(C(=O)NC[C@@H]2CCCO2)oc2c1-c1nn(C(C)(C)c3cccnc3)cc1CC2 [Example 289, 8-methyl-N-{[(2S)-oxolan-2-yl]methyl}-2-[2-(pyridin-3-yl)propan-2-yl]-4,5-dihydro-2H-furo[2,3-g]indazole-7-carboxamide] |
| 27 | O=C(NC[C@@H]1COCCO1)c1oc2c(c1C(F)(F)F)-c1nn(C[C@H]3COCCO3)cc1C1(CCC1)C2 [Example 269, N-[(2R)-1,4-dioxan-2-ylmethyl]-2′-[(2S)-1,4-dioxan-2-ylmethyl]-8′-(trifluormethyl)-2′,5′-dihydrospiro[cyclobutan-1,4′-furo[2,3-g]indazol]-7′-carboxamide] |
| 145 | Cc1c(C(=O)NC[C@@H]2COCCO2)oc2c1-c1nn(C[C@H]3COCCO3)cc1C(C)C2 (mixture of isomers) [Example 248, (4±)-N-{[(2R)-1,4-dioxan-2-yl]methyl}-2-{[(2S)-1,4-dioxan-2-yl]methyl}-4,8-dimethyl-4,5-dihydro-2H-furo[2,3-g]indazole-7-carboxamide] |
| 86 | COCC(=O)N1CCC(Cn2cc3c(n2)-c2c(oc(C(=O)NC[C@@H]4CCCO4)c2C(F)(F)F)CC3)CC1 [Example 284, 2-{[1-(methoxyacetyl)piperidin-4-yl]methyl}-N-{[(2S)-oxolan-2-yl]methyl}-8-(trifluoromethyl)-4,5-dihydro-2H-furo[2,3-g]indazole-7-carboxamide] |
| 8760 | O=C(NCCc1cccnc1)c1oc2c(c1C(F)(F)F)-c1nn(C[C@H]3COCCO3)cc1CC2 [Example 236, 2-[(2S)-1,4-Dioxan-2-ylmethyl]-N-[2-(pyridin-3-yl)ethyl]-8-(trifluormethyl)-4,5-dihydro-2H-furo[2,3-g]indazol-7-carboxamide] |
| 57 | CC1(C)Cc2oc(C(=O)NC[C@@H]3COCCO3)c(C(F)(F)F)c2-c2nn(C[C@H]3COCCO3)cc21 [Example 267, N-{[(2R)-1,4-dioxan-2-yl]methyl}-2-{[(2S)-1,4-dioxan-2-yl]methyl}-4,4-dimethyl-8-(trifluoromethyl)-4,5-dihydro-2H-furo[2,3-g]indazole-7-carboxamide] |
| 2810 | O=C(NCCc1cnccn1)c1oc2c(c1C(F)(F)F)-c1nn(C[C@H]3COCCO3)cc1CC2 [Example 240, 2-{[(2S)-1,4-dioxan-2-yl]methyl}-N-[2-(pyrazin-2-yl)ethyl]-8-(trifluoromethyl)-4,5-dihydro-2H-furo[2,3-g]indazole-7-carboxamide] |
| 16 | C[C@@H]1Cc2oc(C(=O)NC[C@@H]3CCCO3)c(C(F)(F)F)c2-c2nn(C[C@H]3COCCO3)cc21 (single isomer, unassigned) [Example 255-2, (4R or 4S)-2-{[(2S)-1,4-dioxan-2-yl]methyl}-4-methyl-N-{[(2S)-oxolan-2-yl]methyl}-8-(trifluoromethyl)-4,5-dihydro-2H-furo[2,3-g]indazole-7-carboxamide] |

The remaining lines, values behind:

| Compound | IC50 [nM] |
| --- | --- |
| Cc1cc(Cn2cc3c(n2)-c2c(oc(C(=O)NC[C@@H]4CCCO4)c2C)CC3)ccn1 [Example 79, 8-methyl-2-[(2-methylpyridin-4-yl)methyl]-N-[(2S)-tetrahydrofuran-2-ylmethyl]-4,5-dihydro-2H-furo[2,3-g]indazole-7-carboxamide] | 58 |
| Cc1c(C(=O)NC[C@@H]2COCCO2)oc2c1-c1nn(Cc3ccc(C(=O)NC[C@@H]4COCCO4)nc3)cc1CC2 [Example 147, N-[(2R)-1,4-dioxan-2-ylmethyl]-2-[(6-{[(2R)-1,4-dioxan-2-ylmethyl]carbamoyl}pyridin-3-yl)methyl]-8-methyl-4,5-dihydro-2H-furo[2,3-g]indazole-7-carboxamide] | 130 |
| Cc1c(C(=O)N2CCCC2CN)oc2c1-c1nn(Cc3ccccn3)cc1CC2 (racemic) [Example 30, [(2R/S)-2-(aminomethyl)pyrrolidin-1-yl][8-methyl-2-(pyridin-2-ylmethyl)-4,5-dihydro-2H-furo[2,3-g]indazol-7-yl]methanone] | 3570 |
| Cc1c(C(=O)NC[C@@H]2CCCO2)oc2c1-c1nn(Cc3ncccn3)cc1CC2 [Example 83, 8-methyl-2-(pyrimidin-2-ylmethyl)-N-[(2S)-tetrahydrofuran-2-ylmethyl]-4,5-dihydro-2H-furo[2,3-g]indazole-7-carboxamide] | 180 |
| Cc1c(C(=O)NCC2CN(C)CCO2)oc2c1-c1nn(Cc3ccccn3)cc1CC2 (racemic) [Example 38, 8-methyl-N-{[(2R/S)-4-methylmorpholin-2-yl]methyl}-2-(pyridin-2-ylmethyl)-4,5-dihydro-2H-furo[2,3-g]indazole-7-carboxamide] | 700 |
| Cc1c(C(=O)NCC2CCC3(COC3)O2)oc2c1-c1nn(C[C@H]3COCCO3)cc1C1(CC1)C2 (mixture of isomers) [Example 201] | 80 |
| O=C(NC[C@@H]1CCCO1)c1oc2c(c1C(F)(F)F)-c1nn(Cc3ccccn3)cc1C1(CC1)C2 [Example 218, N-{[(2S)-oxolan-2-yl]methyl}-2′-[(pyridin-2-yl)methyl]-8′-(trifluoromethyl)-2′,5′-dihydrospiro[cyclopropane-1,4′-furo[2,3-g]indazole]-7′-carboxamide] | 9 |
| CC1CCC(CNC(=O)c2oc3c(c2C(F)(F)F)-c2nn(CC4COCCO4)cc2CC3)O1 (single isomer, unassigned) [Example 224-1, 2-{[(2S)-1,4-dioxan-2-yl]methyl}-N-{[(2R or 2S,5R or 5S)-5-methyloxolan-2-yl]methyl}-8-(trifluoromethyl)-4,5-dihydro-2H-furo[2,3-g]indazole-7-carboxamide] | 16 |
| Cc1ccc(CNC(=O)c2oc3c(c2C)-c2nn(Cc4ccccn4)cc2CC3)cc1 [Example 2, 8-methyl-N-[(4-methylphenyl)methyl]-2-[(pyridin-2-yl)methyl]-4,5-dihydro-2H-furo[2,3-g]indazole-7-carboxamide] | 78 |
| Cc1c(C(=O)NCC2CCO2)oc2c1-c1nn(Cc3ccccn3)cc1CC2 (single isomer, unassigned) [Example 35-2] | 770 |
| Cc1c(C(=O)NC[C@H]2COCCO2)oc2c1-c1nn(Cc3ccccn3)cc1C1(CCC1)C2 [Example 133] | 940 |
| O=C(NC[C@@H]1CCCO1)c1oc2c(c1C(F)(F)F)-c1nn(C[C@H]3COCCO3)cc1C1(CC1)C2 [Example 168, 2′-[(2S)-1,4-dioxan-2-ylmethyl]-N-[(2S)-tetrahydrofuran-2-ylmethyl]-8′-(trifluoromethyl)-2′,5′-dihydrospiro[cyclopropane-1,4′-furo[2,3-g]indazole]-7′-carboxamide] | 10 |
| Cc1c(C(=O)NC[C@@H]2COCCO2)oc2c1-c1nn(CC3CC3)cc1C1(CC1)C2 [Example 131, 2′-(cyclopropylmethyl)-N-[(2R)-1,4-dioxan-2-ylmethyl]-8′-methyl-2′,5′-dihydrospiro[cyclopropane-1,4′-furo[2,3-g]indazole]-7′-carboxamide] | 35 |
| Cc1c(C(=O)NC[C@@H]2CCCO2)oc2c1-c1nn(C[C@@H]3COCCO3)cc1CC2 [Example 87, 2-[(2R)-1,4-dioxan-2-ylmethyl]-8-methyl-N-[(2S)-tetrahydrofuran-2-ylmethyl]-4,5-dihydro-2H-furo[2,3-g]indazole-7-carboxamide] | 200 |
| Cc1c(C(=O)NCC2OCCC2(C)C)oc2c1-c1nn(Cc3ccccn3)cc1CC2 (racemic) [Example 179] | 6410 |
| Cc1c(C(=O)NCc2ccon2)oc2c1-c1nn(CC3COc4ncccc4O3)cc1CC2 (single isomer, unassigned) [Example 55-1] | 340 |
| Cc1c(C(=O)NCC2CCC(C)O2)oc2c1-c1nn(C[C@H]3COCCO3)cc1C1(CC1)C2 (mixture of isomers) [Example 198] | 94 |
